Data reported in patent US5401748A, “2,14-disubstituted ergolines, their production and use in pharmaceutical compositions” (Schering Aktiengesellschaft, priority 1991, dated 1995).

System: central dopamine receptors
Test: Stereotypy-triggering activity in rats after one-time i.p. pretreatment (method of Horowski and Wachtel)
Format: in vivo, female Wistar rats
Details: ip, rat
Method: The dopaminergic agonistic effect is determined, for example, with the help of method, described by Horowski and Wachtel, of the registration of stereotypies by observation of behavior (Eur. J. Pharmacol. 36: 373-383, 1976):
Immediately after intraperitoneal test substance or vehicle administration,female Wistar rats (90-110 g) are placed individually in observation cages made from transparent acrylic glass (25×19×13.5 cm). At 30, 60, 120, 240, 360 and 480 minutes after pretreatment, the presence of behavior stereotypies (chewing, licking, gnawing) is registered by observation of the animals for 2 minutes (i.e., of 30th-32nd, 60th-62nd, 120th-122nd minutes, etc.). Animals which during the 2-minute observation period show continuous chewing, licking and gnawing movements (longer than 30 seconds) are considered stereotypic.
The number of animals per treatment group with behavior stereotypies is determined during the various observation times. The different treatment groups consist of n=8 animals each. Average effective dose (ED50) is determined with 95% range of confidence for the various observation times with the help of probit analysis.
At 30, 60, 120, 240, 360 and 480 minutes after i.p. pretreatment with test substance or vehicle, the presence of behavior stereotypies in rats (chewing, licking, gnawing) was determined by observation for 2 minutes (i.e., of 30th-32nd, 60th-62nd, 120th-122nd minutes, etc.).

Compound `CCCN1C[C@@H](NC(=O)N(CC)CC)C[C@@H]2c3ccc(C)c4[nH]c(C)c(c34)C[C@H]21` [3-(2,14-Dimethyl-6-propyl-8α-ergolinyl)-1,1-diethylurea] has an ED50 (0.5 h, 30 min, n=8, 95% range of confidence by probit analysis) of 0.055 mg/kg, an ED50 (1 h, 60 min, n=8, probit analysis) of under 0.025 mg/kg and an ED50 (2 h, 120 min, n=8, probit analysis) of under 0.025 mg/kg. It also gave an ED50 (4 h, 240 min, n=8, probit analysis) of under 0.025 mg/kg, an ED50 (6 h, 360 min, n=8, 95% range of confidence by probit analysis) of 0.071 mg/kg and an ED50 (8 h, 480 min, n=8, 95% range of confidence by probit analysis) of 0.072 mg/kg.
